Entries after “also recorded” stand apart in the source; their conditions may differ.
How the values were obtained:
Jurkat cells = assay: [Ca^2+ ]i response of Jurkat cells (Indo-1, flow cytometry); assay type: cell-based, human
Protocol: FIG. 14, Panel A and B. Methionine enkephalin and opiate receptor agonists selective for […] stimulate transmembrane signaling in Jurkat cells. Cells were labeled with Indo-1, washed twice in serum-free medium and held at 4° C. until analyzed. Indo-1 fluorescence was measured using flow cytometry as previously described (Heagy et al., 1992; Ledbetter et al., 1987; Chang et al., 1989; Rabinovitch et al., 1986). The fluorescence for nonstimulated cells (measured in medium, alone) was arbitrarily set at 1.0. Data are presented as per cent increase in the response [(r-baseline) x 100%]. Baseline [Ca^2+ ]i value measured for Jurkat cells (n=4) was 80±40 nM. Baseline Panel A, Jurkat cell response to MET-ENK (0.1 nM, 10 nM and 1 μM) and to the d- selective agonist Dermenkephalin (10 nM). Panel B, Jurkat cell response to the d- selective agonist (D-Pen ^2,5, p Cl-Phe^4)-ENK (0.1 nM. 10 nM. 1 μM).
The inventors (Heagy et al., 1992) have previously shown that when applied to NALM 6 cells the κ-1 agonist U69,953 stimulates a rapid increase in [Ca^2+ ]i. […] In order to determine whether the sites the inventors have identified using the δ-selective agonists also elicit Ca^2+ responses the inventors measured the effects of opioid peptides and δ-selective agonists on the calcium response. […] These studies provide evidence that Jurkat cells have functional δ opiate receptor sites which stimulate transmembrane signaling via rapid increases in [Ca^2+ ]i.

LAZ 221 cells = assay: Migration (chemotaxis) of LAZ 221 pre-B ALL cells; assay type: cell-based, human; settings: LAZ 221, peptide 100 nM; spontaneous locomotion 1886
COS (Vector Control) = assay: cAMP accumulation in COS cells (vector control); assay type: cell-based, monkey
LAZ 388 cells [1] = assay: Flow cytometry of surface molecule expression on LAZ 388 cells; assay type: cell-based, human
Protocol: (§1) Immunofluorescence Staining and Flow Cytometric Analysis of Cell Surface Molecules: Cells were resuspended at 1×10^6 /ml in PBS and then incubated for periods of 5 to 120 minutes at 37° C. with MET-ENK at doses of 0 to 10^-5 M. Incubations were terminated by transferring samples to an ice bath and then pelleting the cells by centrifugation at 1800 rpm for 5 minutes at 4° C.
(§2) Immunofluorescence staining was carried out in 4-ml tubes maintained in an ice water bath. […] Cells were subsequently fixed within a 2% solution of formalin and maintained in the dark at 10° C. until analyzed.
(§3) Flow cytometric analysis was performed using a FACS SCAN Flow Cytometer (Becton Dickinson, Mountain View, Calif.) equipped with a HP9000 Series computer and the Lysys System software analysis package. Data were collected as histograms depicting the fluorescence intensity for 5,000 to 10,000 cells per sample.
(§4) The non-binding IgG1 MOPC myeloma protein, anti-macrophage/monocyte specific CD14 (MO2; IgG2) and anti-T cell specific CD3 (OKT3; IgG2a) mAb were employed as nonreactive controls for measuring the autofluorescence of B cells.

NALM 6 cells [2] = assay: Migration (chemotaxis) of NALM 6 pre-B ALL cells; assay type: cell-based, human; settings: for Number of cells at 40 μm from origin: cells preincubated with mAb (MET-ENK line: buffer, alone); for cell counts, migration to MET-ENK without naloxone: spontaneous 1647
[3] = test system: lymphocytes and macrophages; settings: cited from earlier work
NALM 6 cells [4] = assay: Flow cytometry of surface molecule expression on NALM 6 cells; assay type: cell-based, human; settings: for surface expression of CD9: NALM 6 / pre-B ALL cells
Protocol: NALM 6 cells (10^6 /ml) were incubated at 37° with MET-ENK (10^-7 M) for 0 (Panel A and B) or 30 minutes (Panel C and D). Cells were then transferred to an ice bath, pelleted by centrifugation, and stained for immunofluorescent analysis and flow cytoflourimetry. Data are shown as histograms depicting the distribution of 10,000 cells labeled with anti-CD9 (Panel A and C) or CD-10 (Panel B and D) mAb. The anti-CD9 and anti-CD10 mAb used for these experiments were isotype matched (IgG1).
FIG. 4, Panels A-C. […] Data are presented as mean fluorescence intensities measured for 10,000 cells labeled with anti-CD9 or CD10 mAb. In Panel A, the NALM 6 Cells were incubated with MET-ENK (10^-7 M) for the times indicated. In Panel B, the LAZ 221 cells were incubated with MET-ENK at the doses indicated for 5 minutes at 37° C. […] The anti-CD9 and anti-CD10 mAb used for these experiments were of the IgG2a isotype.
as §1, §2, §3, §4

LAZ 388 cells [5] = assay: Migration (chemotaxis) of LAZ 388 EBV-transformed B cells; assay type: cell-based, human
T cells = settings: literature; cited from earlier work
[6] = LAZ 388, 10^-7 M MET-ENK, untreated 1.0
[7] = LAZ 388, 10^-7 M MET-ENK, untreated 11.4
[8] = NALM 6, 10^-7 M MET-ENK, untreated 1.0
[9] = NALM 6, 10^-7 M MET-ENK, untreated 1.1
[10] = NALM 6, 10^-7 M MET-ENK, untreated 1.8

Compound: CSCC[C@H](NC(=O)[C@H](Cc1ccccc1)NC(=O)CNC(=O)CNC(=O)[C@@H](N)Cc1ccc(O)cc1)C(=O)O [MET-ENK, Tyr-Gly-Gly-Phe-Met]
- [Ca^2+ ]i response (Jurkat cells): elicited a rapid rise in [Ca^2+ ]i
- cell migration (cell counts) (LAZ 221 cells): 6199 cell counts
- cAMP (COS (Vector Control); COS (Vector Control), MET-ENK 0.01 nM, naloxone 10 μM, forskolin 0.1 μM, controls 40.2 and 38.8): 31.6 fmoles/cell × 10^3
- effect on cAMP, mock transfected controls (COS (Vector Control); COS transfected with vector alone): no effect on the cAMP produced in mock transfected controls
- CD11a, CD18, CD54 expression, MET-ENK treated vs not (LAZ 388 cells [1]; LAZ 388): equivalent for the MET-ENK-treated (+) and nontreated (-) cells
- CD2 (LFA-2) fluorescence ratio (LAZ 388 cells [1]; [6]): 0.9
- CD49b (VLA-α2 chain) fluorescence ratio (LAZ 388 cells [1]; [6]): 1.0
- VLA-3 fluorescence ratio (LAZ 388 cells [1]; [6]): 1.0
- VLA-5 fluorescence ratio (LAZ 388 cells [1]; [6]): 1.0
- CD72 fluorescence ratio (LAZ 388 cells [1]; LAZ 388, 10^-7 M MET-ENK, untreated 1.4): 1.7
- CD11b (Mac 1) fluorescence ratio (LAZ 388 cells [1]; LAZ 388, 10^-7 M MET-ENK, untreated 1.5): 1.5
- CD20 fluorescence ratio (LAZ 388 cells [1]; LAZ 388, 10^-7 M MET-ENK, untreated 1.7): 1.7
- VLA-1 fluorescence ratio (LAZ 388 cells [1]; LAZ 388, 10^-7 M MET-ENK, untreated 1.8): 2.0
- CD19 fluorescence ratio (LAZ 388 cells [1]; LAZ 388, 10^-7 M MET-ENK, untreated 8.6): 8.0
- CD22 fluorescence ratio (LAZ 388 cells [1]; [7]): 11.1
- CD29 (VLA-β chain) fluorescence ratio (LAZ 388 cells [1]; [7]): 11.2
- VLA-β; DE9N fluorescence ratio (LAZ 388 cells [1]; LAZ 388, 10^-7 M MET-ENK, untreated 11.5): 11.1
- CD18 (Integrin β chain) fluorescence ratio (LAZ 388 cells [1]; LAZ 388, 10^-7 M MET-ENK, untreated 11.9): 10.1
- CD11a (LF1α) fluorescence ratio (LAZ 388 cells [1]; LAZ 388, 10^-7 M MET-ENK, untreated 12.4): 11.4
- CD54 (ICAM-1) fluorescence ratio (LAZ 388 cells [1]; LAZ 388, 10^-7 M MET-ENK, untreated 18.7): 16.6
- CD58 (LFA-3) fluorescence ratio (LAZ 388 cells [1]; LAZ 388, 10^-7 M MET-ENK, untreated 22.4): 21.8
- CD45 (T200) fluorescence ratio (LAZ 388 cells [1]; LAZ 388, 10^-7 M MET-ENK, untreated 27.4): 27.3
- CD23 fluorescence ratio (LAZ 388 cells [1]; LAZ 388, 10^-7 M MET-ENK, untreated 68.2): 70.7
- CD44 (homing receptor) fluorescence ratio (LAZ 388 cells [1]; LAZ 388, 10^-7 M MET-ENK, untreated 79.0): 84.6
- Number of cells at 40 μm from origin (NALM 6 cells [2]; MET-ENK 0.01 nM): 238
- cell counts, migration to MET-ENK without naloxone (NALM 6 cells [2]; MET-ENK 1 nM): 2925 cell counts
- Number of cells at 40 μm from origin (NALM 6 cells [2]; MET-ENK 1.0 nM): 407
- cell counts, migration to MET-ENK without naloxone (NALM 6 cells [2]; MET-ENK 100 nM): 3492 cell counts
- Number of cells at 40 μm from origin (NALM 6 cells [2]; MET-ENK 100 nM): 637
- cell migration (cell counts) (NALM 6 cells [2]; NALM 6, peptide 100 nM, spontaneous locomotion 2190): 6952 cell counts
- effect on migration of pre-B ALL cells (NALM 6 cells [2]; NALM 6 and LAZ 221 cells): potent stimulus for the migration of NALM 6 and LAZ 221 (pre-B ALL) but not LAZ 388 (EBV-transformed) cells
- concentration at which effect on migration is detected (NALM 6 cells [2]; NALM 6 and LAZ 221 pre-B ALL cells): ≤ 10 pM
- lymphocyte trafficking in vivo ([3]; animals): enhance lymphocyte trafficking
- lymphocyte and macrophage migration into ventricles ([3]; injection into cerebroventricles of rodents): elicited lymphocyte and macrophage migration into the ventricles
- duration of enhanced CD9 expression (NALM 6 cells [4]; MET-ENK 10^-7 M): 60 min
- time of decline of CD9 expression to near baseline (NALM 6 cells [4]; MET-ENK 10^-7 M): 120 min
- incubation time causing increase in CD9 expression (NALM 6 cells [4]; MET-ENK 10^-7 M, pre-B ALL cells): ≤ 10 min
- staining for β-1 integrins, MET-ENK treated vs not (NALM 6 cells [4]; NALM 6): equivalent on NALM 6 cells incubated with (+) or without (-) MET-ENK
- CD11b (Mac 1) fluorescence ratio (mAb/isotype control) (NALM 6 cells [4]; NALM 6, 10^-7 M MET-ENK 30 min, untreated 1.0): 1.1
- CD4 fluorescence ratio (NALM 6 cells [4]; [8]): 1.0
- CD44 (homing receptor) fluorescence ratio (NALM 6 cells [4]; [8]): 2.2
- CD49b (VLA-α2 chain) fluorescence ratio (NALM 6 cells [4]; [8]): 0.9
- CD58 (LFA-3) fluorescence ratio (NALM 6 cells [4]; [8]): 0.9
- CD18 (Integrin β chain) fluorescence ratio (NALM 6 cells [4]; [9]): 1.4
- CD45 (T200) fluorescence ratio (NALM 6 cells [4]; [9]): 1.0
- VLA-1 fluorescence ratio (NALM 6 cells [4]; [9]): 0.6
- VLA-3 fluorescence ratio (NALM 6 cells [4]; [9]): 0.7
- CD20 fluorescence ratio (NALM 6 cells [4]; NALM 6, 10^-7 M MET-ENK, untreated 1.5): 1.3
- CD72 fluorescence ratio (NALM 6 cells [4]; NALM 6, 10^-7 M MET-ENK, untreated 1.6): 2.8
- CD23 fluorescence ratio (NALM 6 cells [4]; [10]): 1.6
- CD49f (VLA-α6 chain) fluorescence ratio (NALM 6 cells [4]; [10]): 1.3
- CD22 fluorescence ratio (NALM 6 cells [4]; NALM 6, 10^-7 M MET-ENK, untreated 2.3): 3.1
- CD49d (VLA-α4 chain) fluorescence ratio (NALM 6 cells [4]; NALM 6, 10^-7 M MET-ENK, untreated 3.9): 4.4
- VLA-5 fluorescence ratio (NALM 6 cells [4]; NALM 6, 10^-7 M MET-ENK, untreated 5.2): 4.9
- CD29 (VLA-β chain) fluorescence ratio (NALM 6 cells [4]; NALM 6, 10^-7 M MET-ENK, untreated 8.4): 9.3
- CD54 (ICAM-1) fluorescence ratio (NALM 6 cells [4]; NALM 6, 10^-7 M MET-ENK, untreated 9.3): 10.5
- VLA-β; DE9N fluorescence ratio (NALM 6 cells [4]; NALM 6, 10^-7 M MET-ENK, untreated 13.6): 13.8
- surface expression of CD10 (NALM 6 cells [4]; NALM 6 / LAZ 221): no effect on CD10 expression
- surface expression of CD9 (NALM 6 cells [4]): upregulation of CD9; also recorded: transient increase in their surface expression of CD9 but not CD10 molecules
- surface expression of CD9 (NALM 6 cells [4]; listed as Methionine-enkephalin): discrete, transient up-regulation in the CD9 molecules; also recorded: rapid and dose-dependentincrease in the CD9 but not CD10 molecules
- CD9 expression, cells in ice water bath (NALM 6 cells [4]; ice water bath, data not shown): had no effect when they were maintained in an ice water bath
- cell migration (cell counts) (LAZ 388 cells [5]; LAZ 388, peptide 100 nM, spontaneous locomotion 1938): 1986 cell counts
- migration of LAZ 388 cells (LAZ 388 cells [5]; LAZ 388 vs spontaneous locomotion): equivalent to their spontaneous locomotion
- T cell aggregation, rosetting, morphology, adhesion molecules (T cells): enhance T cell aggregation

Source: patent US5753516A, “Screening method for ligands of the EBI-1 receptor” (priority 1995, dated 1998)
